# Patent publication US7396837B2, “Antitumoral analogs of lamellarins” (Pharma Mar, S.A.U., priority 2002, dated 2008)
# Experiments:
# human topoisomerase I = target: T1, human topoisomerase I (Homo sapiens, UniProt P11387); experiment: Topoisomerase I DNA relaxation assay (supercoiled plasmid DNA); assay type: biochemical; settings: supercoiled plasmid DNA, each compound tested at 1 μM, agarose gel with ethidium bromide
# T1 sequence (P11387 1-765): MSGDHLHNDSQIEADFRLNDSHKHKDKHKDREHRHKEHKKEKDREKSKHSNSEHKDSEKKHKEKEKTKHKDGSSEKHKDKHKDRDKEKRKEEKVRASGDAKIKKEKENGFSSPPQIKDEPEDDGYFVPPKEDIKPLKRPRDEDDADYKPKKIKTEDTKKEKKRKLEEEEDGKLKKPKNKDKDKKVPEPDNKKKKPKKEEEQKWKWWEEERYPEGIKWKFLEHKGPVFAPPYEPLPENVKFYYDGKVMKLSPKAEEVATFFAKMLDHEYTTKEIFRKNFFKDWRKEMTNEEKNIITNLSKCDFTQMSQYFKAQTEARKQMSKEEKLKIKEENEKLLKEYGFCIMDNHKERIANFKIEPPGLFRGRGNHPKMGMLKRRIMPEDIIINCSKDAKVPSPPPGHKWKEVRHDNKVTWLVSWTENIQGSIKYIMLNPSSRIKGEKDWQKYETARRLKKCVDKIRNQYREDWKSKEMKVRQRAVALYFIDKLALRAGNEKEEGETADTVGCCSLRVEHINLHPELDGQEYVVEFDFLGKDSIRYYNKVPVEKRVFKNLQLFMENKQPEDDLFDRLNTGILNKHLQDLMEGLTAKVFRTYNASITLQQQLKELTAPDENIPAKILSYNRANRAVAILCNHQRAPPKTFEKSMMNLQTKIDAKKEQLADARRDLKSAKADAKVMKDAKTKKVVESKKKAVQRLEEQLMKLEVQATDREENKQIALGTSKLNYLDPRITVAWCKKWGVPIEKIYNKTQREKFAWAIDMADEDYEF
# Protocol: Two assays, based on DNA relaxation and DNA cleavage (Bailly, C. DNA relaxation and cleavage assays to study topoisomerase I inhibitors. Methods Enzymol. 2001, 340, 610-623) were used evaluate the effects of the lamellarin analogs on the catalytic activity of human topoisomerase I.
# In the first assay, a supercoiled plasmid DNA was relaxed with topoisomerase I in the absence or presence of the test compounds, each tested at 1 μM. DNA relaxation products were then resolved by gel electrophoresis on agarose gels containing ethidium bromide to stain the DNA.
# A-549 = experiment: SRB colorimetric cell growth inhibition assay, A-549; assay type: cell-based; settings: A-549
# Summary of the method: (§1)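 Human tumour cells were exposed continuously to the test sample, and growth and viability were quantified by sulforhodamine B staining. Means ± SD came from triplicate wells, and GI, TGI (cytostatic) and LC (cell killing) parameters were derived.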
# HT-29 = experiment: SRB colorimetric cell growth inhibition assay, HT-29; assay type: cell-based; settings: HT-29
# Summary of the method: as §1
# SK-BR-3 = experiment: SRB colorimetric cell growth inhibition assay, SK-BR-3; assay type: cell-based; settings: SK-BR-3
# Summary of the method: as §1
# DU-145 = experiment: SRB colorimetric cell growth inhibition assay, DU-145; assay type: cell-based; settings: DU-145
# Summary of the method: as §1
# H-MEC-1 = experiment: SRB colorimetric cell growth inhibition assay, H-MEC-1; assay type: cell-based; settings: H-MEC-1
# From the text: (§2) Inhibition of Cell Growth by Colorimetric Assay.
# (§3) A colorimetric type of assay, using sulforhodamine B (SRB) reaction has been adapted for a quantitative measurement of cell growth and viability (following the technique described by P. A. Skehan, et al., J. Natl. Cancer Inst. 1990, 82, 1107-1112).
# (§4) This form of assay employs 96 well cell culture microplates of 9 mm diameter (T. Mosmann et al., J. of Immunological Methods 1983, 65, 55-63; G. T. Faircloth et al., J. of Tissue and Culture Methods 1988, 11, 201-205).
# (§5) Most of the cell lines are obtained from American Type Culture Collection (ATCC) derived from different human cancer types.
# (§6) The values for mean +/− SD of data from triplicate wells are calculated. Some parameters for cellular responses can be calculated: GI=growth inhibition, TGI=total growth inhibition (cytostatic effect) and LC=cell killing (cytotoxic effect).
# SK-MEL-28 = experiment: SRB colorimetric cell growth inhibition assay, SK-MEL-28; assay type: cell-based; settings: MEL-28
# Summary of the method: as §1
# LoVo-Dox = experiment: SRB colorimetric cell growth inhibition assay, LoVo-Dox (MDR); assay type: cell-based; settings: LOVO-DOX
# Summary of the method: as §1
# PANC-1 = experiment: SRB colorimetric cell growth inhibition assay, PANC-1; assay type: cell-based; settings: PANC-1
# Summary of the method: as §1
# LoVo = experiment: SRB colorimetric cell growth inhibition assay, LoVo; assay type: cell-based; settings: LOVO
# Summary of the method: as §1
# K-562 = experiment: SRB colorimetric cell growth inhibition assay, K-562; assay type: cell-based; settings: K-562
# Summary of the method: as §1
# IGROV-ET = experiment: SRB colorimetric cell growth inhibition assay, IGROV-ET (ET-743 resistant); assay type: cell-based; settings: IGROV-ET
# Summary of the method: as §1
# LNCaP = experiment: SRB colorimetric cell growth inhibition assay, LNCaP; assay type: cell-based; settings: LN-caP
# Summary of the method: as §1
# IGROV = experiment: SRB colorimetric cell growth inhibition assay, IGROV; assay type: cell-based; settings: IGROV
# Summary of the method: as §1
# SKOV-3 = experiment: SRB colorimetric cell growth inhibition assay, SKOV-3; assay type: cell-based; settings: SKOV-3
# From the text: as §2, §3, §4, §5, §6
# [1] = total growth inhibition (cytostatic effect)
# [2] = TGI=total growth inhibition (cytostatic effect)
structure (smiles),measurement,setting,value
COc1cc(-c2c3n(c4c(=O)oc5cc(OC(=O)[C@@H](NC(=O)OC(C)(C)C)C(C)C)c(OC)cc5c24)CCc2cc(OC(=O)[C@@H](NC(=O)OC(C)(C)C)C(C)C)c(OC)cc2-3)ccc1OC(=O)[C@@H](NC(=O)OC(C)(C)C)C(C)C [Compound 144],stimulation of DNA cleavage by topoisomerase I / inhibition of topoisomerase I (nicked DNA band) in DNA relaxation assay,human topoisomerase I,No effect
COc1cc(-c2c3n(c4c(=O)oc5cc(OC(C)=O)c(OC)cc5c24)CCc2cc(OC)c(OC(C)=O)cc2-3)ccc1OC(C)=O [Compound 94],GI50,"A-549; GI=growth inhibition, read-out: GI50 A-549",7.19 µM
same,CC50,"A-549; cell killing (cytotoxic effect), read-out: LC50 A-549",15.9 µM
same,TGI A-549,A-549; [1],1.59E−05 Molar
same,GI50,"HT-29; GI=growth inhibition, read-out: GI50 HT-29",15.5 µM
same,CC50,"HT-29; cell killing (cytotoxic effect), read-out: LC50 HT-29",15.9 µM
same,TGI HT-29,HT-29; [1],1.59E−05 Molar
same,GI50,"SK-BR-3; GI=growth inhibition, read-out: GI50 SK-BR-3",3.35 µM
same,CC50,"SK-BR-3; LC=cell killing (cytotoxic effect), read-out: LC50 SK-BR-3",15.9 µM
same,TGI SK-BR-3,SK-BR-3; [2],1.24E−05 Molar
same,GI50,"DU-145; GI=growth inhibition, read-out: GI50 DU-145",13.1 µM
same,CC50,"DU-145; LC=cell killing (cytotoxic effect), read-out: LC50 DU-145",15.9 µM
same,TGI DU-145,DU-145; [2],1.59E−05 Molar
same,GI50,H-MEC-1; GI=growth inhibition,15.9 µM
same,CC50,"H-MEC-1; LC=cell killing (cytotoxic effect), read-out: LC50 H-MEC-1",15.9 µM
same,TGI H-MEC-1,H-MEC-1; [2],1.59E−05 Molar
same,GI50,"SK-MEL-28; GI=growth inhibition, read-out: GI50 MEL-28",2.45 µM
same,CC50,"SK-MEL-28; LC=cell killing (cytotoxic effect), read-out: LC50 MEL-28",15.9 µM
same,TGI MEL-28,SK-MEL-28; [2],7.31E−06 Molar
same,GI50,"LoVo-Dox; GI=growth inhibition, read-out: GI50 LOVO-DOX",2.84 µM
same,CC50,"LoVo-Dox; cell killing (cytotoxic effect), read-out: LC50 LOVO-DOX",15.9 µM
same,TGI LOVO-DOX,LoVo-Dox; [1],8.25E−06 Molar
same,GI50,"PANC-1; GI=growth inhibition, read-out: GI50 PANC-1",2.12 µM
same,CC50,"PANC-1; cell killing (cytotoxic effect), read-out: LC50 PANC-1",15.9 µM
same,TGI PANC-1,PANC-1; [1],1.59E−05 Molar
same,GI50,"LoVo; GI=growth inhibition, read-out: GI50 LOVO",5.7 µM
same,CC50,"LoVo; cell killing (cytotoxic effect), read-out: LC50 LOVO",15.9 µM
same,TGI LOVO,LoVo; [1],1.59E−05 Molar
same,GI50,"K-562; GI=growth inhibition, read-out: GI50 K-562",0.526 µM
same,CC50,"K-562; cell killing (cytotoxic effect), read-out: LC50 K-562",4.32 µM
same,TGI K-562,K-562; [1],1.82E−06 Molar
same,GI50,"IGROV-ET; GI=growth inhibition, read-out: GI50 IGROV-ET",1.59 µM
same,CC50,"IGROV-ET; LC=cell killing (cytotoxic effect), read-out: LC50 IGROV-ET",15.9 µM
same,TGI IGROV-ET,IGROV-ET; [2],1.59E−05 Molar
same,GI50,"LNCaP; GI=growth inhibition, read-out: GI50 LN-caP",0.673 µM
same,CC50,"LNCaP; LC=cell killing (cytotoxic effect), read-out: LC50 LN-caP",12.5 µM
same,TGI LN-caP,LNCaP; [2],2.87E−06 Molar
same,GI50,"IGROV; GI=growth inhibition, read-out: GI50 IGROV",1.83 µM
same,CC50,"IGROV; LC=cell killing (cytotoxic effect), read-out: LC50 IGROV",15.9 µM
same,TGI IGROV,IGROV; [2],5.90E−06 Molar
same,GI50,"SKOV-3; GI=growth inhibition, read-out: GI50 SKOV-3",8.48 µM
same,CC50,"SKOV-3; LC=cell killing (cytotoxic effect), read-out: LC50 SKOV-3",15.9 µM
same,TGI SKOV-3,SKOV-3; [2],1.59E−05 Molar
COc1cc(-c2c3n(c4c(=O)oc5cc(OC(=O)c6cc(F)c(F)c(F)c6F)c(OC)cc5c24)CCc2cc(OC(=O)c4cc(F)c(F)c(F)c4F)c(OC)cc2-3)ccc1OC(=O)c1cc(F)c(F)c(F)c1F [Compound 139],stimulation of DNA cleavage by topoisomerase I / inhibition of topoisomerase I (nicked DNA band) in DNA relaxation assay,human topoisomerase I,inactive
